Reference: PMC5007552, “The hVps34‐SGK3 pathway alleviates sustained PI3K/Akt inhibition by stimulating mTORC1 and tumour growth” (The EMBO Journal, 2016)
Values belong to the molecule of their own block, whether it stands above or below them.

Experiments:
[1] = test system: NDRG1 phosphorylation in ZR-75-1 cells; test: Immunoblot of NDRG1 (Thr346) phosphorylation in breast cancer cells; type: cell-based, human; settings: for concentration reducing NDRG1 phosphorylation to basal levels: ZR-75-1 pre-treated with 1 μM MK-2206 for 5 days, hVps34 inhibitor 1 h; for phosphorylation of PRAS40 (Thr246) and NDRG1 (Thr346): 1 μM, 1 h, ZR-75-1, CAMA-1 (and T47D for PI3K inhibitors)
Method: Cell lysates were subjected to immunoblot analysis with the indicated antibodies. • ZR‐75‐1 cells cultured in serum in the absence of Akt inhibitor were treated for 1 h with the indicated concentrations of VPS34‐IN1. […] One hour prior to lysis, the cells were incubated in the presence or absence of 1 μM VPS34‐IN1. SGK3 was immunoprecipitated from lysates and subjected to in vitro kinase assay by measuring phosphorylation of the Crosstide substrate peptide in the presence of 0.1 mM [γ‐^32P]ATP in a 30 min 30°C reaction (upper panel). Kinase reactions are presented as means ± SD for triplicate reaction. Immunoprecipitates (IP) and lysates were analysed by immunoblot with the indicated antibodies. […] SGK3 was immunoprecipitated from the lysates and subjected to in vitro kinase assay as in (C). Kinase reactions are presented as means ± SD for triplicate reaction. Immunoprecipitates (IP) and lysates (lower panel) were also subjected to immunoblot analysis with the indicated antibodies. • ZR‐75‐1 cells were cultured in the absence or presence of 1 μM MK‐2206 for 5 days. Cells were then treated in the absence or presence of 0.1 μM AZD8055 or 0.1 μM rapamycin for 1 h. SGK3 was immunoprecipitated and subjected to in vitro kinase assay as in (C). Kinase reactions are presented as means ± SD for triplicate reaction. The immunoprecipitates (IP) and lysates were analysed with the indicated antibodies.
One hour prior to lysis, the cells were incubated in the presence of absence of 0.3 μM SAR405. SGK3 was immunoprecipitated from lysates and subjected to in vitro kinase assay by measuring phosphorylation of the Crosstide substrate peptide in the presence of 0.1 mM [γ‐^32P]ATP in a 30 min 30°C reaction (upper panel). Kinase reactions are presented as means ± SD for triplicate reaction. Immunoprecipitates (IP) and lysates were also analysed by immunoblot with the indicated antibodies.
(§1) The result for each kinase is presented as a mean kinase activity of the reaction taken in triplicate relative to a control reaction where the inhibitors were omitted. […] SGK3 was immunoprecipitated from cell lysates and subjected to in vitro kinase assay by measuring phosphorylation of the Crosstide substrate peptide in the presence of 0.1 mM [γ‐^32P]ATP in a 30 min 30°C reaction (upper panel). Kinase reactions are presented as means ± SD for triplicate reaction.
(§2) HEK293 cells were purchased from the American Tissue Culture Collection (ATCC). Cells were cultured in RPMI or DMEM media supplemented with 10% (v/v) foetal bovine serum, 2 mM L‐glutamine, 100 U/ml penicillin and 0.1 mg/ml streptomycin. Inhibitor treatments were carried out as described in figure legends. During 5 days inhibitor treatments, the media was changed after 72‐h intervals. The cells were lysed in buffer containing 50 mM Tris–HCl (pH 7.5), 150 mM NaCl, 1 mM EDTA, 1 mM EGTA, 1 mM sodium orthovanadate, 10 mM sodium glycerophosphate, 10 mM sodium pyrophosphate, 0.27 M sucrose, 0.1% (v/v) 2‐mercaptoethanol, 1 mM benzamidine and 0.1 mM PMSF. Lysates were clarified by centrifugation at 16,000 g for 10 min at 4°C. Protein concentration was calculated using Bradford assay (Thermo Scientific). Immunoblotting and immunoprecipitation were performed using standard procedures. The signal was developed using ECL Western Blotting Detection Kit (Amersham) on Amersham Hyperfilm ECL film (Amersham).

[2] = test system: ZR-75-1 cells; test: Immunoblot of Akt/mTORC1 pathway markers (Akt, PRAS40, TSC2, S6K1, Rictor, S6, 4EBP1) in ZR-75-1 cells; type: cell-based, human; settings: for Akt phosphorylation and PRAS40 phosphorylation: ZR-75-1 in serum, hVps34 inhibitor 1 h
Method: Kinase reactions are presented as means ± SD for triplicate reaction. Immunoprecipitates (IP) were also analysed by immunoblot with the indicated antibodies. • SGK3 was knocked down in ZR‐75‐1 cells by using shRNA probe B and compared to a control shRNA probe, named sh scramble. After infection, the cells were kept for 2 days in puromycin selection media and then seeded for the experiment. The cells were treated with 1 μM MK‐2206 for 1 h or 5 days. The cell lysates were subjected to immunoblot analysis with the indicated antibodies.
The cell lysates were analysed by immunoblot using the antibody against phosphorylated Akt phosphorylation consensus motif (RxRxxpS/pT).
as §2

[3] = target: T1, SGK3 (Homo sapiens, UniProt Q96BR1); test: Immunoprecipitated endogenous SGK3 kinase activity (Crosstide) and SGK3 phosphorylation from treated cells; type: cell-based; design: we immunoprecipitated endogenous SGK3 and assessed protein kinase activity; endogenous in cells; host or cells: ZR-75-1; settings: for elevated SGK3 kinase activity, T-loop and hydrophobic motif phosphorylation induced by prolonged Class I PI3K or Akt inhibitor treatment: ZR-75-1, 5 days PI3K/Akt inhibitor, then 1 μM VPS34-IN1 or 0.3 μM SAR405 for 1 h; for basal SGK3 activity and phosphorylation: ZR-75-1 in serum, 1 μM VPS34-IN1 or 0.3 μM SAR405; for basal SGK3 activity and phosphorylation / SGK3 hydrophobic motif and T-loop phosphorylation and SGK3 kinase activity: 1 h; for SGK3 hydrophobic motif and T-loop phosphorylation and SGK3 kinase activity: ZR-75-1, 0.1 μM, with or without 5 days 1 μM MK-2206
T1 sequence (Q96BR1 1-496): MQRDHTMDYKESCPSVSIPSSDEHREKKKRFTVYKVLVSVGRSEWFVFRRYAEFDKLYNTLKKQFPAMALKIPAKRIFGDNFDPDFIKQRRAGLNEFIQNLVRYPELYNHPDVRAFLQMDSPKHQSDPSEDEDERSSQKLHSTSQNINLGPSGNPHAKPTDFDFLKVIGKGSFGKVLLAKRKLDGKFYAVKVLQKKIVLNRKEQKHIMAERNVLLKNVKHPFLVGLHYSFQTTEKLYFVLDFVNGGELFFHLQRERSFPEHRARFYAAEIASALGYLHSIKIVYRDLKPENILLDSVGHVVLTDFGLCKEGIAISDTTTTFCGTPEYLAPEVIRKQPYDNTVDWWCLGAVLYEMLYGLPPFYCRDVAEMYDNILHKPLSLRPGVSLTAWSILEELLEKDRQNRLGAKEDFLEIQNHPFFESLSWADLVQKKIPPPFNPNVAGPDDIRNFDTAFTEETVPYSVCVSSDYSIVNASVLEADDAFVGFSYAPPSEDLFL
Method: Briefly, SGK3, Akt and S6K1 were immunoprecipitated from 1 mg ZR‐75‐1 cell lysate. Immunoprecipitates were washed in sequence with lysis buffer containing high salt concentration (500 mM NaCl), lysis buffer and Buffer A (50 mM Tris pH 7.5, 0.1 mM EGTA). Kinase activity was assessed by measuring [γ‐^32P]ATP incorporation into Crosstide substrate peptide [[…]]. The reactions were carried in 40 μl total volume containing 0.1 mM [γ‐^32P]ATP (400–1,000 cpm/pmol), 10 mM magnesium acetate and 30 μM Crosstide peptide. Reactions were terminated by adding 10 μl 0.1 M EDTA and spotting 40 μl of the resulting reaction mix on P81 paper, which were immediately immersed into 50 mM orthophosphoric acid. Papers were washed at least five times in 50 mM orthophosphoric acid, rinsed in acetone and air‐dried. Radioactivity was quantified by Cerenkov counting. One unit of enzyme activity was defined as amount of enzyme that catalyses incorporation of 1 nmol of [γ‐^32P]ATP into the substrate over 1 min.

[4] = test system: breast cancer cells that express high levels of SGK1; test: NDRG1 phosphorylation in breast cancer cells that express high levels of SGK1; type: cell-based; settings: data not shown
[5] = target: T1, SGK3; test: IC50 on recombinant SGK3; type: biochemical; settings: Fig 5B / Appendix Fig S1B, recombinant kinase, unit inferred
Method: as §1
(§3) Appendix Figure S1. […] (A) Chemical struc tures of
(§4) Sano/f_i-14g, -14i and -14n compounds. (B) IC50 values of inhibitors on indicated recombinant k inases. […]

[6] = target: MLK1 (Homo sapiens, UniProt P80192); test: IC50 on recombinant MLK1; type: biochemical; settings: Fig 5B / Appendix Fig S1B, recombinant kinase, unit inferred
Chain of MLK1 (P80192 whole entry, species assumed): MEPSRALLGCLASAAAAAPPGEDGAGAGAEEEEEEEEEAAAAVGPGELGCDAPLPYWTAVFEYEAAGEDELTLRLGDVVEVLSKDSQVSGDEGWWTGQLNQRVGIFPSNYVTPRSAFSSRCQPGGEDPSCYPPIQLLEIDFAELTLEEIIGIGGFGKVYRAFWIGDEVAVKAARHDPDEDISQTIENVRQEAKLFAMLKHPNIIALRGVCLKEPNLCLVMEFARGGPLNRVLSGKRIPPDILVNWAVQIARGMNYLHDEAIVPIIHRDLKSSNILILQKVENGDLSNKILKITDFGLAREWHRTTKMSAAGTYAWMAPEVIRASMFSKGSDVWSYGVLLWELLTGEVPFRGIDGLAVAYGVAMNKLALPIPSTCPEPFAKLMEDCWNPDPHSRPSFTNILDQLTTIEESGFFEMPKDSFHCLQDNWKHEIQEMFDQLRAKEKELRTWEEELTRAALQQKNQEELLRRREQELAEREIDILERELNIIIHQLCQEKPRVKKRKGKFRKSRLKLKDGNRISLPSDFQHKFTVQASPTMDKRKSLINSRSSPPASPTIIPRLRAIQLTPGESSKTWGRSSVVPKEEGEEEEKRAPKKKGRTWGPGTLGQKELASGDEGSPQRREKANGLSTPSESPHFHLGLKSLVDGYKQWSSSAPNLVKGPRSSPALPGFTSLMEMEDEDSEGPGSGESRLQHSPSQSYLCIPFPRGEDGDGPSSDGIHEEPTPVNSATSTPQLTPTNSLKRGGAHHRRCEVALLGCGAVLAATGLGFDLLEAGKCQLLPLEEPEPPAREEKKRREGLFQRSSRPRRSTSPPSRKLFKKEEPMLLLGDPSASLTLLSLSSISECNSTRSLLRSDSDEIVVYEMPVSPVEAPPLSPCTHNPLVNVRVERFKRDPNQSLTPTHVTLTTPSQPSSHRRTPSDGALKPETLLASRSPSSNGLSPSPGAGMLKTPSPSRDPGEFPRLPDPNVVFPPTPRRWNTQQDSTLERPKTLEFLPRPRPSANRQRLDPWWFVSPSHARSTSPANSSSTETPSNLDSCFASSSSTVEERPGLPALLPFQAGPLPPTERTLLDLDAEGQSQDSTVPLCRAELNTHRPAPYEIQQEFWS
Method: as §1, §3, §4

[7] = target: MLK3 (Homo sapiens, UniProt Q16584); test: IC50 on recombinant MLK3; type: biochemical; settings: Fig 5B / Appendix Fig S1B, recombinant kinase, unit inferred
Chain of MLK3 (Q16584 whole entry, species assumed): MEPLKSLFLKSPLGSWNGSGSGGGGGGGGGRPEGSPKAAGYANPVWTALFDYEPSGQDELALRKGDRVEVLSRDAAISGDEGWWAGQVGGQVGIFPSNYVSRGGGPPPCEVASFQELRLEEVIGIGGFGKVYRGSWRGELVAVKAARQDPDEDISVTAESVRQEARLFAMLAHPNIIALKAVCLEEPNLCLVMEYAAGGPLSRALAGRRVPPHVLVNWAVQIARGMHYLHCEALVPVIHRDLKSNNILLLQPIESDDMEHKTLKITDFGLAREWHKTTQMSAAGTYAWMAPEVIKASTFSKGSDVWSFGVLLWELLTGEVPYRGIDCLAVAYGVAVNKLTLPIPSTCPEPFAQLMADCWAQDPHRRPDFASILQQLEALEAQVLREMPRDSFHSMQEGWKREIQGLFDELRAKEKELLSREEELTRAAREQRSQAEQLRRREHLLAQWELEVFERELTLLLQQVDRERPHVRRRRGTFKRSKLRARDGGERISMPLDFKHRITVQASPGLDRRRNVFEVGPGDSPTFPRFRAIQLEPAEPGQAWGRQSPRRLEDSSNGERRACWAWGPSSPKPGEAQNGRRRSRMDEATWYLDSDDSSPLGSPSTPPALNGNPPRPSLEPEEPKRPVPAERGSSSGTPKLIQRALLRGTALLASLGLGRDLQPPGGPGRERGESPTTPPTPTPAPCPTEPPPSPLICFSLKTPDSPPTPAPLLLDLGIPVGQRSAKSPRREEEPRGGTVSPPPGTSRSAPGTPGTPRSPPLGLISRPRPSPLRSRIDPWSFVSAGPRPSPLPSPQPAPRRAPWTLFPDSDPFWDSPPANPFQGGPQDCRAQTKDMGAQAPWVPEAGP
Method: as §1, §3, §4

[8] = target: PKBa (Homo sapiens, UniProt P31749); test: IC50 on recombinant PKBa (Akt1); type: biochemical; settings: Fig 5B / Appendix Fig S1B, recombinant kinase, unit inferred
Chain of PKBa (P31749 whole entry): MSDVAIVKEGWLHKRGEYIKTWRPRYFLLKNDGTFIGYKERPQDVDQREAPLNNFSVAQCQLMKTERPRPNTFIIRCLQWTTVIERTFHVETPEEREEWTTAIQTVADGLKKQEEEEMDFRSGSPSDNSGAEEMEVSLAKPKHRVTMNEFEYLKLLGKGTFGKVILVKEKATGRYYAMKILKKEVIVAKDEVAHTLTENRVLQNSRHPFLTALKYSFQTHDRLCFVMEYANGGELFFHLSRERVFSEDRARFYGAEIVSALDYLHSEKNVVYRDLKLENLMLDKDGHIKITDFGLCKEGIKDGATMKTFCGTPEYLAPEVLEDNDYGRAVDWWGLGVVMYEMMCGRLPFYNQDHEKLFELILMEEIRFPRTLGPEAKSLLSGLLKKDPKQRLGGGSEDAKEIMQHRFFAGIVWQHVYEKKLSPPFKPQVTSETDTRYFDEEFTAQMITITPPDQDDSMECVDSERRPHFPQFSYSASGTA
Method: as §1, §3, §4

[9] = target: S6K1 (Homo sapiens, UniProt P23443); test: IC50 on recombinant S6K1 (p70S6K); type: biochemical; settings: Fig 5B / Appendix Fig S1B, recombinant kinase, unit inferred
Chain of S6K1 (P23443 whole entry): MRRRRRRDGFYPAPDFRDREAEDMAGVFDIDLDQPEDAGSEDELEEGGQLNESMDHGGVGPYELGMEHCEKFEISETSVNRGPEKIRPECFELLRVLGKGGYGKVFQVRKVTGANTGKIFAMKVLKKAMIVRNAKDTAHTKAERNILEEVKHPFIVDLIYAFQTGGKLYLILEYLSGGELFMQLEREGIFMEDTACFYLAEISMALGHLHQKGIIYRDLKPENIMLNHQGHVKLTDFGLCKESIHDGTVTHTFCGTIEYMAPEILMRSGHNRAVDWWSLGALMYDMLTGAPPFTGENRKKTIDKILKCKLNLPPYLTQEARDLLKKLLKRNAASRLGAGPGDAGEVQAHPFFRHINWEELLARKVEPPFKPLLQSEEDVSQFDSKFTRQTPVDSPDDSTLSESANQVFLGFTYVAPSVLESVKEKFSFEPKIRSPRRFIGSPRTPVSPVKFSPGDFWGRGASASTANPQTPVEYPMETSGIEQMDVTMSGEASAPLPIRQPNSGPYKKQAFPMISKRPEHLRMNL
Method: as §1, §3, §4

elevated SGK3 kinase activity, T-loop and hydrophobic motif phosphorylation induced by prolonged Class I PI3K or Akt inhibitor treatment [3]: suppressed
basal SGK3 activity and phosphorylation [3]: to below control levels
Compound: C[C@@H]1COCCN1c1cc(=O)n2c(n1)N(Cc1cncc(Cl)c1)[C@H](C(F)(F)F)CC2 [SAR405]
concentration reducing NDRG1 phosphorylation to basal levels [1]: 0.3 µM
Akt phosphorylation and PRAS40 phosphorylation [2]: neither compound suppressed

SGK3 hydrophobic motif and T-loop phosphorylation and SGK3 kinase activity [3]: had no effect
Compound: CO[C@H]1C[C@@H]2CC[C@@H](C)[C@@](O)(O2)C(=O)C(=O)N2CCCC[C@H]2C(=O)O[C@H]([C@H](C)C[C@@H]2CC[C@@H](O)[C@H](OC)C2)CC(=O)[C@H](C)/C=C(\C)[C@@H](O)[C@@H](OC)C(=O)[C@H](C)C[C@H](C)/C=C/C=C/C=C/1C [rapamycin]

SGK3 hydrophobic motif and T-loop phosphorylation and SGK3 kinase activity [3]: suppressed
Compound: COc1ccc(-c2ccc3c(N4CCOC[C@@H]4C)nc(N4CCOC[C@@H]4C)nc3n2)cc1CO [AZD8055]

IC50 [5]: 13 nM
IC50 [6]: 169 nM
IC50 [7]: 94 nM
IC50 [8]: > 10 µM
IC50 [9]: 76 nM
Compound: Nc1[nH]nc2nc(-c3ccc(NS(=O)(=O)c4cc(Cl)ccc4F)cc3)cnc12 [14n]

Further lines, the molecule ahead of its results:

Compound: CC(C)(O)CNc1ncc(-c2ccnc(Nc3ccnc(Cl)c3)n2)c(CC2CC2)n1 [VPS34-IN1]
concentration reducing NDRG1 phosphorylation to basal levels [1]: 1 µM
TSC2 or mTORC1 substrate phosphorylation ([2]; ZR-75-1, 1 μM VPS34-IN1 alone, 1 h): did not have an effect
Akt phosphorylation and PRAS40 phosphorylation [2]: neither compound suppressed
elevated SGK3 kinase activity, T-loop and hydrophobic motif phosphorylation induced by prolonged Class I PI3K or Akt inhibitor treatment [3]: suppressed
basal SGK3 activity and phosphorylation [3]: to below control levels

Compound: Nc1cc(C(F)(F)F)c(-c2cc(N3CCOCC3)nc(N3CCOCC3)n2)cn1 [BKM120]
phosphorylation of PRAS40 (Thr246) and NDRG1 (Thr346) [1]: markedly suppressed

Compound: CS(=O)(=O)N1CCN(Cc2cc3nc(-c4cccc5[nH]ncc45)nc(N4CCOCC4)c3s2)CC1 [GDC0941]
phosphorylation of PRAS40 (Thr246) and NDRG1 (Thr346) [1]: markedly suppressed

Compound: CCc1c(C(=O)NNC(=O)C(O)c2cc(F)cc(F)c2)ccc(O)c1C (stereo not shown) [EMD638683]
dose required to observe marginal reduction in NDRG1 phosphorylation [4]: 100 µM
